According to the NIST ThermoML archive (doi:10.1021/je5002686):
“And” between values parts separate entries of the source, which are not always exact repeats. Equal values may be shown once.

Conditions: Liquid, Vibrating tube method

CCOC(F)(C(F)(F)C(F)(F)C(F)(F)F)C(F)(C(F)(F)F)C(F)(F)F (centres undefined) [2-trifluoromethyl-3-ethoxydodecafluorohexane]
mass density
Conditions	270 K	290 K	310 K	330 K	350 K
490 kPa	1678.1 kg/m3	1637.9 kg/m3	1597.2 kg/m3	1555.1 kg/m3	–
500 kPa	1678.3 kg/m3	1638.1 kg/m3 and 1638.2 kg/m3	1597.2 kg/m3 and 1597.5 kg/m3	1555.2 kg/m3 and 1555 kg/m3	1511.4 kg/m3 and 1511.5 kg/m3
510 kPa	–	–	–	–	1511.6 kg/m3
990 kPa	1679.2 kg/m3 and 1679.3 kg/m3	1639.4 kg/m3 and 1639.5 kg/m3	1598.7 kg/m3	–	1513.6 kg/m3
1000 kPa	1679.2 kg/m3	1639.2 kg/m3	1598.7 kg/m3 and 1599 kg/m3	1556.9 kg/m3 and 1556.7 kg/m3	1513.7 kg/m3 and 1513.5 kg/m3
1990 kPa	1681.3 kg/m3	1641.9 kg/m3	–	1560.4 kg/m3	1517.8 kg/m3
2000 kPa	1681.5 kg/m3	1641.7 kg/m3 and 1642 kg/m3	1601.6 kg/m3 and 1601.9 kg/m3	1560.2 kg/m3 and 1560.3 kg/m3	1517.6 kg/m3 and 1517.8 kg/m3
2990 kPa	–	1644.4 kg/m3	1604.8 kg/m3	1563.6 kg/m3	1521.8 kg/m3
3000 kPa	1683.4 kg/m3	1644.3 kg/m3 and 1644.1 kg/m3	1604.5 kg/m3 and 1604.4 kg/m3	1563.8 kg/m3 and 1563.7 kg/m3	1521.9 kg/m3 and 1521.7 kg/m3
3010 kPa	1683.6 kg/m3	–	–	–	–
3990 kPa	1685.5 kg/m3	1646.7 kg/m3 and 1646.5 kg/m3	1607.3 kg/m3	1567 kg/m3	–
4000 kPa	1685.6 kg/m3	1646.8 kg/m3	1607.2 kg/m3 and 1607.6 kg/m3	1567.1 kg/m3 and 1566.9 kg/m3	1525.8 kg/m3 and 1525.6 kg/m3 and 1525.7 kg/m3
4990 kPa	1687.5 kg/m3	1649.1 kg/m3	1609.9 kg/m3	1570.2 kg/m3	1529.4 kg/m3
5000 kPa	1687.7 kg/m3 and 1687.5 kg/m3	1648.9 kg/m3 and 1649.2 kg/m3	1610 kg/m3	1570.3 kg/m3 and 1570.1 kg/m3	1529.6 kg/m3 and 1529.5 kg/m3
5010 kPa	–	–	1610.3 kg/m3	–	–
9990 kPa	1697.3 kg/m3	1660.3 kg/m3 and 1660.1 kg/m3 and 1660.4 kg/m3	–	1585.3 kg/m3	1547.1 kg/m3
10000 kPa	1697.3 kg/m3 and 1697.4 kg/m3	–	1622.9 kg/m3 and 1623.3 kg/m3 and 1623 kg/m3	1585.1 kg/m3 and 1585.2 kg/m3	1546.9 kg/m3 and 1547 kg/m3
14990 kPa	1706.5 kg/m3	–	–	–	–
15000 kPa	1706.5 kg/m3 and 1706.6 kg/m3	1670.8 kg/m3 and 1670.6 kg/m3	1634.8 kg/m3 and 1635.2 kg/m3 and 1634.9 kg/m3	1598.9 kg/m3 and 1598.7 kg/m3 and 1598.8 kg/m3	1562.7 kg/m3 and 1562.5 kg/m3 and 1562.6 kg/m3
19990 kPa	–	1680.5 kg/m3 and 1680.3 kg/m3	1645.8 kg/m3 and 1645.9 kg/m3	1611.3 kg/m3 and 1611.2 kg/m3	1576.5 kg/m3 and 1576.6 kg/m3
20000 kPa	1715.1 kg/m3 and 1715.2 kg/m3	1680.6 kg/m3	1646.2 kg/m3	1611.2 kg/m3	1576.8 kg/m3
24990 kPa	1723.4 kg/m3	–	–	–	1589.6 kg/m3 and 1589.4 kg/m3 and 1589.5 kg/m3
25000 kPa	1723.3 kg/m3 and 1723.5 kg/m3	1689.7 kg/m3 and 1689.5 kg/m3	1656.1 kg/m3	1622.9 kg/m3 and 1622.6 kg/m3 and 1622.7 kg/m3	–
25010 kPa	–	–	1656.5 kg/m3 and 1656.2 kg/m3	–	–
29990 kPa	1731.3 kg/m3	–	1665.8 kg/m3	1633.5 kg/m3	1601.3 kg/m3
30000 kPa	1731.1 kg/m3 and 1731.2 kg/m3	1698.4 kg/m3	1666.2 kg/m3	1633.4 kg/m3 and 1633.5 kg/m3	1601.5 kg/m3 and 1601.4 kg/m3
30010 kPa	–	1698.3 kg/m3	1665.7 kg/m3	–	–
34990 kPa	1738.7 kg/m3	1706.7 kg/m3	1674.8 kg/m3	1643.6 kg/m3 and 1643.5 kg/m3	1612.3 kg/m3 and 1612.4 kg/m3
35000 kPa	1738.6 kg/m3 and 1738.7 kg/m3	1706.5 kg/m3	1674.9 kg/m3	1643.4 kg/m3	1612.6 kg/m3
35010 kPa	–	1706.7 kg/m3	1675.3 kg/m3	–	–
40000 kPa	1745.7 kg/m3 and 1745.8 kg/m3 and 1745.9 kg/m3	1714.6 kg/m3 and 1714.4 kg/m3 and 1714.5 kg/m3	1683.5 kg/m3 and 1683.9 kg/m3 and 1683.6 kg/m3	1653.1 kg/m3 and 1652.8 kg/m3 and 1652.9 kg/m3	–
44990 kPa	1752.7 kg/m3	1722.1 kg/m3	–	1661.8 kg/m3 and 1661.9 kg/m3	–
45000 kPa	1752.6 kg/m3	1721.9 kg/m3 and 1722.1 kg/m3	1691.7 kg/m3 and 1692.2 kg/m3 and 1691.8 kg/m3	1662 kg/m3	–
49930 kPa	–	1729.2 kg/m3	–	–	–
49940 kPa	–	1729.1 kg/m3	–	–	–
49950 kPa	–	1729 kg/m3	–	–	–
49960 kPa	1759.2 kg/m3	–	–	–	–
49970 kPa	1759.2 kg/m3	–	1699.6 kg/m3	–	–
49980 kPa	–	–	–	1670.4 kg/m3	–
49990 kPa	–	–	–	1670.3 kg/m3	–
50000 kPa	1759.4 kg/m3	–	–	–	–
50010 kPa	–	–	1699.6 kg/m3	1670.6 kg/m3	–
50050 kPa	–	–	1700.1 kg/m3	–	–
